Experimental data published in paper PMC11575505 (Chemical Science, 2024).
In brackets after ≈: the same amount, converted by molar mass. Like-named read-outs stand apart in the source and are kept apart here.

Experiments:
PI3Kα-mutant cell lines = experiment: Growth rate inhibition, panel comparison; type: cell-based; settings: 72 h incubation, GR50
[1] = tested on: PKB phosphorylation (Ser473) in MDA-MB-453, T47D and MCF7 cells; experiment: Washout, pPKB in-cell western; type: cell-based; settings: 1 μM for 2 h then washout
[2] = tested on: PKB/Akt phosphorylation (Ser473) in SKOV3 cells; experiment: pPKB/Akt in-cell western; type: cell-based; settings: read-out: pPKB/Akt IC50, 1 h of compound exposure
Kinetic solubility = type: physicochemical; settings: for solubility at 2 h: PBS buffer, 25 °C, pH 7.4, aqueous buffer, kinetic from dmso stock
[3] = tested on: PI3K signaling (pPKB Ser473) in serum-starved MCF7 cells; experiment: Receptor ligand stimulated pPKB after washout, western blot; type: cell-based; settings: for inhibition at 1 µM: Homo sapiens, MCF7, 2 h
Nanoluc-p110α fusion = Nanoluc-p110α fusion (Homo sapiens, UniProt P42336); experiment: NanoBRET tracer displacement / diffusion assay in HEK293 cells; type: cell-based; settings: for increase in cellular permeability versus BYL719: diffusion coefficients
p110α = p110α protein levels by western blot; type: cell-based; settings: 1 μM for 48 h
PI3Kα mutant cell lines = experiment: Growth rate on intermittent exposure; type: cell-based; settings: 1 μM for 4 h daily over 4 days
[4] = Intrinsic warhead reactivity; type: physicochemical; settings: 1 mM compound, 600 mM βME, 37 °C
[5] = tested on: PKB/Akt phosphorylation (Ser473) in MCF7 cells; experiment: pPKB/Akt in-cell western; type: cell-based; settings: MCF7, 1 h; for prevention of PKB phosphorylation: 3 μM to 0.8 nM
[6] = tested on: FOXO1 KTR translocation in T47D cells; experiment: FOXO1 KTR translocation; type: cell-based; settings: for time to import of FOXO1-KTR into the nucleus: 3 μM, live cell imaging
[7] = tested on: PKB/Akt phosphorylation (Ser473) in T47D cells; experiment: pPKB/Akt in-cell western; type: cell-based; settings: 1 h; for prevention of PKB phosphorylation: 3 μM to 0.8 nM
[8] = tested on: FOXO1 KTR translocation in A2058 cells; experiment: FOXO1 KTR translocation; type: cell-based
[9] = tested on: PKB phosphorylation (Ser473) in T47D, MCF7, PC3 and A2058 cells; experiment: Washout, pPKB in-cell western; type: cell-based

Chain of Nanoluc-p110α fusion (P42336 whole entry, the tested form may be a part): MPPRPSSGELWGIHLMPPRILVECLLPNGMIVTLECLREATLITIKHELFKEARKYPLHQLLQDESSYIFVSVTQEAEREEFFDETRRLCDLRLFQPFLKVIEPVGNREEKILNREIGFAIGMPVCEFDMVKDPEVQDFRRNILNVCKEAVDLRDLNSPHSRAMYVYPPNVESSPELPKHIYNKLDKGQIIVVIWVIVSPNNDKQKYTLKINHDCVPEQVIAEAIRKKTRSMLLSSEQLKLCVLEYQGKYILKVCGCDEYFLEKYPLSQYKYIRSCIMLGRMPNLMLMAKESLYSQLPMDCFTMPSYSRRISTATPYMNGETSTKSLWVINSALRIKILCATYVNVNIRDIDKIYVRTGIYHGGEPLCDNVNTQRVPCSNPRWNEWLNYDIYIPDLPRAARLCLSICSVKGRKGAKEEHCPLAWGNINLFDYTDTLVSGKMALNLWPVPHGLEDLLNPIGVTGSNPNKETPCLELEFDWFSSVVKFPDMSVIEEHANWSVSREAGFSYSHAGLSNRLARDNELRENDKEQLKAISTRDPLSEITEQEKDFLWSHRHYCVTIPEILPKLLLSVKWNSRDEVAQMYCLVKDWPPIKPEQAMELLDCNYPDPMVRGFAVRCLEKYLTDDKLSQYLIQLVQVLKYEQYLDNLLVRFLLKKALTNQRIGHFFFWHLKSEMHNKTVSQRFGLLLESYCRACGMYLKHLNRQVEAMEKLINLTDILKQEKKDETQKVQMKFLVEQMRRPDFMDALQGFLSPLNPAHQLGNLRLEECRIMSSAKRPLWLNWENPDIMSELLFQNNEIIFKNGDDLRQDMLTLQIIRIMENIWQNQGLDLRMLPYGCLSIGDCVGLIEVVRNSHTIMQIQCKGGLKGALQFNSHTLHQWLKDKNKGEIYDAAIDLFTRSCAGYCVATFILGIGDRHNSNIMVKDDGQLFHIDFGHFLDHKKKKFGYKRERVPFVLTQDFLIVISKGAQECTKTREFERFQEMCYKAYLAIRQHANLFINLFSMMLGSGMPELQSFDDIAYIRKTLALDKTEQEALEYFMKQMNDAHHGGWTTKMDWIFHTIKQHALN
Chain of Nanoluc-p110α fusion (P27986 whole entry partner, the tested form may be a part): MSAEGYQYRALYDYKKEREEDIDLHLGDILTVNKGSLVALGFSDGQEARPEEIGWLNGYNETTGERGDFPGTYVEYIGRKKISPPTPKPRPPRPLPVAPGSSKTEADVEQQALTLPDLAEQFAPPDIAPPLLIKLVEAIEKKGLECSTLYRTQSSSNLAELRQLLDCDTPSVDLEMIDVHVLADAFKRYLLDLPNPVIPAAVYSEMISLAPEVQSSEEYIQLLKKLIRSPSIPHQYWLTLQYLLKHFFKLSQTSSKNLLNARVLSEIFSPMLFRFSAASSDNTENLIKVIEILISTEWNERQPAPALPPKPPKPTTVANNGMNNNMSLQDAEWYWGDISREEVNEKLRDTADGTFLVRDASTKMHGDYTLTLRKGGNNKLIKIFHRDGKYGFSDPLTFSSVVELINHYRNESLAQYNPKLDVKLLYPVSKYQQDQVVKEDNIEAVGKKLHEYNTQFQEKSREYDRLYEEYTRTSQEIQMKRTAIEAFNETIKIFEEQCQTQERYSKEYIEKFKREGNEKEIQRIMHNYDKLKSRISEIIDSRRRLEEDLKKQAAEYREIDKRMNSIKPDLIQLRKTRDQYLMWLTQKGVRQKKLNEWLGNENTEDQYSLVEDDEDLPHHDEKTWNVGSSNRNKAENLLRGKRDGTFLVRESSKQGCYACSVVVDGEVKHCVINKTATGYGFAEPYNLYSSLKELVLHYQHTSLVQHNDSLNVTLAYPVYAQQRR

With C=CC(=O)N1CCC(COCC(=O)N2CCN(c3nc(-c4cnc(N)nc4C(F)F)nc(N4CCOC[C@@H]4C)n3)CC2)CC1 [Compound 9] the “more potent growth inhibition than reference compounds BYL719 and GDC-0077” value (PI3Kα-mutant cell lines) was 2- to 273 fold, the “more potent than the reversible analogue 9r” value (PI3Kα-mutant cell lines) was 6- to 70 fold and the “duration of loss of detectable pPKB after washout” value [1] was “up to 72 h”. It also gave an IC50 [2] of 0.019 µM, a solubility at 2 h (Kinetic solubility) of 357 µM (≈ 220 µg/mL) and an inhibition at 1 µM ([3]; read-out: inhibition of PI3K signaling in response to CXCL12) of 91%. For the same compound, the inhibition at 1 µM ([3]; read-out: inhibition of PI3K signaling in response to EGF) was 98%, the “increase in cellular permeability versus BYL719” value (“increase” for short) (Nanoluc-p110α fusion) was 2- to 3 fold and the “faster permeation into cells as compared to 7” value (Nanoluc-p110α fusion; human, 4 h) was “ca. 2.8 ×”. For the same compound, the “depletion of p110α” value (p110α; HCC1954 and MDA-MB-453 cells) was “prominent, indistinguishable depletion of p110α”, the “depletion of p110α” value (p110α; MCF7 and T47D cells) was “insignificant” and the growth rate (PI3Kα mutant cell lines) was at most 0.5.

For C=CC(=O)N1CCC(C(=O)NCCN2CCN(c3nc(-c4cnc(N)nc4C(F)F)nc(N4CCOCC4)n3)CC2)CC1 [Compound 4], the “k chem × 10^4” value [4] was ~5.2 ^e M^−1 s^−1 and the IC50 [2] was 0.069 µM.

For C=CC(=O)N1CCC(CCCC(=O)N2CCN(c3nc(-c4cnc(N)nc4C(F)F)nc(N4CCOCC4)n3)CC2)CC1 [Compound 7], the “better cellular potency (lower pPKB IC50) as compared to BYL719” value [5] was 8 fold, the “persistence of nuclear FOXO1-KTR localization after washout” value ([6]; 3 μM then washout) was over 10 h and the “time to import of FOXO1-KTR into the nucleus” value [6] was under 20 min. For the same compound, the IC90 ([6]; Homo sapiens, 1 h, read-out: FOXO1-KTR nuclear import IC90) was 0.05 µM, the IC50 [2] was 0.022 µM and the “better cellular potency (lower pPKB IC50) as compared to BYL719” value [7] was 5 fold. For the same compound, the “time to nuclear FOXO1 KTR localization” value ([8]; A2058, 3 μM, live cell imaging) was over 40 min, the IC90 ([8]; Homo sapiens, A2058, 1 h, read-out: FOXO1-KTR nuclear translocation IC90) was 1.66 µM and the “PI3K/PKB signaling after washout” value ([9]; PTEN-deficient cell lines) was about 50%. The “duration of pathway inhibition after washout” value ([9]; T47D and MCF7 cells, 3 μM for 2 h then washout) was over 18 h.

With C=CC(=O)N1CCC(COCC(=O)N2CCN(c3nc(-c4cnc(N)nc4C(F)F)nc(N4CCOCC4)n3)CC2)CC1 [Compound 8] the IC50 [2] was 0.019 µM and the “increase” value (Nanoluc-p110α fusion) was 2- to 3 fold.

In the case of Cc1nc(NC(=O)N2CCC[C@H]2C(N)=O)sc1-c1ccnc(C(C)(C)C(F)(F)F)c1 [BYL719, reference compound], the “time to import of FOXO1-KTR into the nucleus” value [6] is reported as under 20 min, the “FOXO1-KTR nuclear import IC90” value ([6]; 1 h incubation) is reported as “not able to induce full nuclear translocation” and the solubility at 2 h (Kinetic solubility) is reported as 49 µM (≈ 21.6 µg/mL). For the same compound, the “FOXO1-KTR nuclear translocation IC90” value ([8]; A2058, 1 h incubation) was “completely ineffective” and the “reactivation of PI3K/PKB signaling after removal of inhibitor” value ([9]; all cell lines, 2 h incubation then washout) was “reactivated PI3K/PBK signaling within the first hour”.

With Cc1cc(C(C)Nc2ccccc2)c2nc(N3CCOCC3)cc(=O)n2c1 (centres unmarked) [TGX221] the “prevention of PKB phosphorylation” value [5] was “did not prevent PKB phosphorylation”, the “prevention of PKB phosphorylation” value [7] was “did not prevent PKB phosphorylation” and the “suppression of the remaining PI3K signaling, CXCL12” value ([3]; MCF7, TGX221 1 μM after 9-wo) was 6%. For the same compound, the “suppression of the remaining PI3K signaling, EGF” value ([3]; MCF7, TGX221 1 μM after 9-wo) was 2% and the “suppression of the remaining PI3K signaling, insulin” value ([3]; MCF7, TGX221 1 μM after 9-wo) was 12%.

With CCC(=O)N1CCC(COCC(=O)N2CCN(c3nc(-c4cnc(N)nc4C(F)F)nc(N4CCOC[C@@H]4C)n3)CC2)CC1 [Compound 9r] the “time to equilibrium of BRET signal decay” value (Nanoluc-p110α fusion; HEK293, 200 nM Tracer K-3) was “ca. 20 min” and the “increase” value (Nanoluc-p110α fusion) was 2- to 3 fold.

For CC(C)=CC(=O)CCC(=O)N1CCN(Cc2cc3nc(-c4cccc5[nH]ncc45)nc(N4CCOCC4)c3s2)CC1 [CNX1351, reference compound], the “k chem × 10^4” value [4] was 2.2 M^−1 s^−1, the IC50 [2] was 0.172 µM and the Solubility (Kinetic solubility; kinetic solubility at pH 7.4 in PBS) was 10 µM (≈ 5.74 µg/mL).

Work on C=CC(=O)N1CCC(C(=O)NCC(=O)N2CCN(c3nc(-c4cnc(N)nc4C(F)F)nc(N4CCOCC4)n3)CC2)CC1 [Compound 1] yielded an IC50 [2] of 0.086 µM and a solubility at 2 h (Kinetic solubility) of 333 µM (≈ 205 µg/mL).

In the case of CC[C@H](Nc1ncnc2[nH]cnc12)c1nc2cccc(F)c2c(=O)n1-c1ccccc1 [CAL101], the “prevention of PKB phosphorylation” value [5] is reported as “did not prevent PKB phosphorylation” and the “prevention of PKB phosphorylation” value [7] is reported as “did not prevent PKB phosphorylation”.

In the case of C[C@H](Nc1ccc2c(c1)OCCn1cc(N3C(=O)OC[C@H]3C(F)F)nc1-2)C(N)=O [GDC-0077, reference compound], the solubility at 2 h (Kinetic solubility) is reported as 357 µM (≈ 145 µg/mL), the “depletion of p110α” value (p110α; HCC1954 and MDA-MB-453 cells) is reported as “prominent, indistinguishable depletion of p110α” and the “depletion of p110α” value (p110α; MCF7 and T47D cells) is reported as “insignificant”.

Work on C=CC(=O)N1CCC[C@@H](n2nc(-c3ccc(Oc4ccccc4)cc3)c3c(N)ncnc32)C1 [Ibrutinib, reference compound] yielded a solubility at 2 h (Kinetic solubility) of 10 µM (≈ 4.41 µg/mL).

C=CC(=O)N1CCC(C(=O)N(C)CC(=O)N2CCN(c3nc(-c4cnc(N)nc4C(F)F)nc(N4CCOCC4)n3)CC2)CC1 [Compound 2] gave an IC50 [2] of 0.082 µM and a solubility at 2 h (Kinetic solubility) of 383 µM (≈ 241 µg/mL).

C=CC(=O)N1CCC(CN(C)CC(=O)N2CCN(c3nc(-c4cnc(N)nc4C(F)F)nc(N4CCOCC4)n3)CC2)CC1 [Compound 3] gave an IC50 [2] of 0.038 µM and a solubility at 2 h (Kinetic solubility) of 363 µM (≈ 223 µg/mL).
